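Following 48 hours of exposure in 96-well plates, responses at five concentrations were used to interpolate endpoints linearly. TGI: total growth inhibition.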
How the values were obtained:
Assay in all cases: NCI tumour cell line growth inhibition, 48 h
[1] = system: LOX IMVI melanoma
[2] = system: DMS 273 small cell lung
[3] = system: UO-31 renal
[4] = system: UACC-62 melanoma
[5] = system: HT29 colon
[6] = system: HL-60(TB) leukemia
[7] = system: SF-295 CNS
[8] = system: SN12C renal
[9] = system: IGROV1 ovarian
[10] = system: RPMI-8226 leukemia
[11] = system: COLO 205 colon
[12] = system: HCT-15 colon
[13] = system: TK-10 renal
[14] = system: SK-MEL-28 melanoma
[15] = system: A549 NSCLC
[16] = system: DMS 114 small cell lung
[17] = system: M19-MEL melanoma
[18] = system: SK-OV-3 ovarian
[19] = system: EKVX NSCLC
[20] = system: SW-620 colon
[21] = system: SK-MEL-5 melanoma
[22] = system: SF-539 CNS
[23] = system: SNB-19 CNS
[24] = system: NCI-H522 lung
[25] = system: MOLT-4 leukemia
[26] = system: CAKI-1 renal
[27] = system: CCRF-CEM leukemia
[28] = system: UACC-257 melanoma
[29] = system: NCI-H23 lung
[30] = system: M14 melanoma
[31] = system: OVCAR-8 ovarian
[32] = system: KM12 colon
[33] = system: SF-268 CNS
[34] = system: SNB-75 CNS
[35] = system: K-562 leukemia
[36] = system: NCI-H226 lung
[37] = system: RXF 393 renal
[38] = system: OVCAR-3 ovarian
[39] = system: T-47D breast
[40] = system: MDA-MB-231 breast
[41] = system: NCI/ADR-RES ovarian
[42] = system: U251 CNS
[43] = system: ACHN renal
[44] = system: OVCAR-5 ovarian
[45] = system: SK-MEL-2 melanoma
[46] = system: MCF7 breast
[47] = system: BT-549 breast
[48] = system: NCI-H460 lung
[49] = system: DU-145 prostate
[50] = system: OVCAR-4 ovarian
[51] = system: 786-0 renal
[52] = system: HOP-62 NSCLC
[53] = system: HOP-92 NSCLC
[54] = system: MALME-3M melanoma
[55] = system: HCC-2998 colon
[56] = system: A498 renal
[57] = system: HS 578T breast
[58] = system: HCT-116 colon
[59] = system: MDA-MB-435
[60] = system: SR leukemia
[61] = system: MDA-N
[62] = system: PC-3 prostate

Measured: TGI

O=C1N[C@@H]2CCC[C@@H]2[C@@H]1c1ccc(Cl)cc1
not listed: [39] | [40] | [41] | [42] | [43] | [44] | [45] | [46] | [47] | [48] | [49] | [50] | [51] | [52] | [53] | [54] | [55] | [56] | [57] | [58] | [59] | [60] | [61] | [62]
> 100 µM: all other assays above

O=C1c2cccnc2S(=O)(=O)N1c1ccc([N+](=O)[O-])cc1
not listed: [2] | [16] | [17] | [35] | [37]
> 100 µM: all other assays above

CC(=O)C1(O)CCC2(O)C3(O)CC=C4CC(O)CCC4(C)C3CC(OC(=O)c3ccc(O)cc3)C12C (configuration not stated)
not listed: [2] | [16] | [17] | [37] | [54]
> 100 µM: all other assays above
